According to patent US20180273531A1, “PYRIMIDINE COMPOUND AND MEDICAL USE THEREOF” (Japan Tobacco Inc., priority 2004, published 2018):

Key:
[1] = tested on: p15 protein; assay: Evaluation of p15 induction activity (Western blotting); format: cell-based; settings: test substance 0.1 μM, 24 hrs, ACHN cells or HT-29 cells, compared to DMSO, n=2
Protocol: ACHN cells or HT-29 cells were cultured in a 6 well plate at 2.5×10^5 cells/1.8 mL/well for 24 hrs, then a test substance (0.1 μM) dissolved in DMSO was added. After 24 hrs, cells were detached using trypsin-EDTA (ethylene diamine tetraacetic acid) and solubilized with NuPAGE LDS sample buffer (Invitrogen). Using an RC DC protein assay kit (BIO-RAD), the protein concentration of the sample was quantitated, and a sample in an amount corresponding to 10 μg of BSA (bovine serum albumin) was analyzed by Western blotting using an anti-p15 antibody. The density of the band stained with the anti-p15 antibody was measured by a densitometer to quantify the amount of p15 protein. As a control, DMSO was used and the test was performed with n=2 and the average protein amount was determined.

[2] = tested on: colorectal cancer cell line HT-29 cells; assay: Growth inhibitory effect against cancer cell lines (3H-thymidine uptake), HT-29; format: cell-based; settings: Homo sapiens, HT-29, inhibition of 3H-thymidine uptake; test substance 18 hrs, then 3H-thymidine 6 hrs; triplicate
Protocol: Renal cancer cell line ACHN cell or colorectal cancer cell line HT-29 cells were cultured in a 96 well plate at 1.0×10^4 cells/90 μL/well for 24 hrs, then a test substance dissolved in DMSO (dimethyl sulfoxide) was added. After 18 hrs, ^3H-thymidine (0.25 μCi/well) was added and the cells were cultured for 6 hrs. Using a cell harvester, the cells were recovered on a UniFilter-96 GF/B glass filter and the ^3H radioactivity uptaken by the cells was measured by TopCount (Packard). As a control, DMSO was used and the activity of the test substance was expressed in the concentration (IC50) necessary for inhibiting ^3H radioactivity uptaken by the cell to 50% of that of the control group. The measurements were made in triplicate.

| SMILES | fold induction at 0.1 µM [1] | IC50 [2] |
| --- | --- | --- |
| Cn1c(=O)cc(Nc2ccc(F)cc2)c2c(=O)n(-c3ccccc3)c(=O)n(-c3ccccc3)c21 [Example 1-8] | ≥ 1.5 | – |
| Cn1c(=O)cc(Nc2ccccc2)c2c(=O)n(-c3ccccc3)c(=O)n(-c3ccccc3)c21 [Example 1-12] | ≥ 1.5 | – |
| Cn1c(=O)cc(Nc2ccc3c(c2)OCO3)c2c(=O)n(-c3ccccc3)c(=O)n(-c3ccccc3)c21 [Example 1-16] | ≥ 1.5 | – |
| Cn1c(=O)cc(Nc2ccc(Cl)c(Cl)c2)c2c(=O)n(-c3ccccc3)c(=O)n(-c3ccccc3)c21 [Example 1-17] | ≥ 1.5 | – |
| Cn1c(=O)c2c(Nc3ccc(Cl)cc3)cc(=O)n(C)c2n(-c2ccccc2)c1=O [Example 1-35] | ≥ 1.5 | – |
| Cn1c(=O)cc(NCC(C)(C)C)c2c(=O)n(-c3ccccc3)c(=O)n(-c3ccccc3)c21 [Example 1-36] | ≥ 1.5 | – |
| Cn1c(=O)cc(Nc2ccc(C(=O)O)cc2)c2c(=O)n(-c3ccccc3)c(=O)n(-c3ccccc3)c21 [Example 1-37] | ≥ 1.5 | – |
| CCCC(CCC)c1ccc(Nc2cc(=O)n(C)c3c2c(=O)n(-c2ccccc2)c(=O)n3-c2ccccc2)cc1 [Example 1-40] | ≥ 1.5 | – |
| Cn1c(=O)cc(Nc2ccc(N)cc2)c2c(=O)n(-c3ccccc3)c(=O)n(-c3ccccc3)c21 [Example 1-46] | ≥ 1.5 | – |
| Cc1cc(Cl)ccc1Nc1cc(=O)n(C)c2c1c(=O)n(-c1ccccc1)c(=O)n2-c1ccccc1 [Example 1-53] | ≥ 1.5 | – |
| CCNc1ccc(Nc2cc(=O)n(C)c3c2c(=O)n(-c2ccccc2)c(=O)n3-c2ccccc2)cc1 [Example 1-65] | ≥ 1.5 | – |
| Cn1c(=O)cc(Nc2ccc(Cl)cc2)c2c(=O)n(-c3ccc(F)cc3)c(=O)n(-c3ccc(F)cc3)c21 [Example 1-79] | ≥ 1.5 | – |
| Cn1c(=O)cc(Nc2ccc(Cl)cc2)c2c(=O)n(C3CCCC3)c(=O)n(-c3ccccc3)c21 [Example 1-80] | ≥ 1.5 | – |
| CC(C)n1c(=O)c2c(Nc3ccc(Cl)cc3)cc(=O)n(C)c2n(-c2ccccc2)c1=O [Example 1-81] | ≥ 1.5 | – |
| CCn1c(=O)c2c(Nc3ccc(Br)cc3)cc(=O)n(C)c2n(-c2ccccc2)c1=O [Example 1-96] | ≥ 1.5 | 100 to 1000 nM |
| Cn1c(=O)cc(Nc2ccc(Br)cc2)c2c(=O)n(C3CCC3)c(=O)n(-c3ccccc3)c21 [Example 1-107] | ≥ 1.5 | – |
| Cc1ccccc1-n1c(=O)n(CC(F)(F)F)c(=O)c2c(Nc3ccc(Br)cc3)cc(=O)n(C)c21 [Example 1-108] | ≥ 1.5 | – |
| CCn1c(=O)c2c(Nc3ccc(Cl)cc3)cc(=O)n(C)c2n(-c2ccccc2C)c1=O [Example 1-109] | ≥ 1.5 | – |
| CCn1c(=O)c2c(Nc3ccc(N(C)C)cc3)cc(=O)n(C)c2n(-c2ccccc2C)c1=O [Example 1-110] | ≥ 1.5 | – |
| CCn1c(=O)c2c(Nc3ccc(Br)cc3)cc(=O)n(C)c2n(-c2ccccc2C)c1=O [Example 1-111] | ≥ 1.5 | 100 to 1000 nM |
| CCn1c(=O)c2c(Nc3ccc(Br)cc3)cc(=O)n(C)c2n(-c2ccccc2F)c1=O [Example 1-116] | ≥ 1.5 | 100 to 1000 nM |
| CCn1c(=O)c2c(Nc3ccc(N(C)C)cc3)cc(=O)n(C)c2n(-c2ccccc2F)c1=O [Example 1-117] | ≥ 1.5 | 100 to 1000 nM |
| Cc1ccc(-n2c(=O)n(C3CC3)c(=O)c3c(Nc4ccc(N(C)C)cc4)cc(=O)n(C)c32)cc1 [Example 1-126] | ≥ 1.5 | 100 to 1000 nM |

| SMILES | fold induction at 0.1 µM [1] | IC50 [2] |
| --- | --- | --- |
| Cc1cccc(-n2c(=O)n(C3CC3)c(=O)c3c(Nc4ccc(N(C)C)cc4)cc(=O)n(C)c32)c1 [Example 1-127] | ≥ 1.5 | 100 to 1000 nM |
| CCn1c(=O)c2c(Nc3ccc(Br)cc3)cc(=O)n(C)c2n(-c2cccnc2)c1=O [Example 1-131] | ≥ 1.5 | – |
| CN(C)c1ccc(Nc2cc(=O)n(C)c3c2c(=O)n(C2CC2)c(=O)n3-c2ccc(F)cc2)cc1 [Example 1-132] | ≥ 1.5 | 100 to 1000 nM |
| CN(C)c1ccc(Nc2cc(=O)n(C)c3c2c(=O)n(C2CC2)c(=O)n3-c2cccc(F)c2)cc1 [Example 1-133] | ≥ 1.5 | 100 to 1000 nM |
| CNc1ccc(Nc2cc(=O)n(C)c3c2c(=O)n(C2CC2)c(=O)n3-c2ccccc2)cc1 [Example 1-136] | ≥ 1.5 | 100 to 1000 nM |
| CCNc1ccc(Nc2cc(=O)n(C)c3c2c(=O)n(C2CC2)c(=O)n3-c2ccccc2)cc1 [Example 1-137] | ≥ 1.5 | – |
| Cn1ccc2cc(Nc3cc(=O)n(C)c4c3c(=O)n(C3CC3)c(=O)n4-c3ccccc3)ccc21 [Example 1-138] | ≥ 1.5 | 100 to 1000 nM |
| CN(C)c1ccc(Nc2cc(=O)n(C)c3c2c(=O)n(C2CC2)c(=O)n3-c2ccccc2)cc1F [Example 1-143] | ≥ 1.5 | 100 to 1000 nM |
| COc1ccc(Nc2cc(=O)n(C)c3c2c(=O)n(C2CC2)c(=O)n3-c2ccccc2)c(OC)c1 [Example 1-146] | ≥ 1.5 | – |
| Cn1c(=O)cc(Nc2ccc(Br)c(F)c2)c2c(=O)n(C3CC3)c(=O)n(-c3ccccc3)c21 [Example 1-151] | ≥ 1.5 | 100 to 1000 nM |
| CC1CC1n1c(=O)c2c(Nc3ccc(Br)cc3)cc(=O)n(C)c2n(-c2ccccc2)c1=O (stereo not drawn) [Example 1-153] | ≥ 1.5 | 100 to 1000 nM |
| COc1ccc(Nc2cc(=O)n(C)c3c2c(=O)n(C2CC2)c(=O)n3-c2ccccc2)c(C)c1 [Example 1-154] | ≥ 1.5 | – |
| Cc1cc(Br)ccc1Nc1cc(=O)n(C)c2c1c(=O)n(C1CC1)c(=O)n2-c1ccccc1 [Example 1-156] | ≥ 1.5 | 100 to 1000 nM |
| Cc1cc(Nc2cc(=O)n(C)c3c2c(=O)n(C2CC2)c(=O)n3-c2ccccc2)ccc1Br [Example 1-157] | ≥ 1.5 | – |
| Cn1c(=O)cc(Nc2ccc(F)cc2F)c2c(=O)n(C3CC3)c(=O)n(-c3ccccc3)c21 [Example 1-162] | ≥ 1.5 | – |
| Cn1c(=O)cc(Nc2ccc(Cl)cc2Cl)c2c(=O)n(C3CC3)c(=O)n(-c3ccccc3)c21 [Example 1-163] | ≥ 1.5 | 100 to 1000 nM |
| Cn1c(=O)cc(Nc2ccc3[nH]ccc3c2)c2c(=O)n(C3CC3)c(=O)n(-c3ccccc3)c21 [Example 1-165] | ≥ 1.5 | 100 to 1000 nM |
| COc1ccccc1-n1c(=O)n(C2CC2)c(=O)c2c(Nc3ccc(Br)cc3F)cc(=O)n(C)c21 [Example 1-166] | ≥ 1.5 | 10 to 100 nM |
| CCn1ccc2cc(Nc3cc(=O)n(C)c4c3c(=O)n(C3CC3)c(=O)n4-c3ccccc3)ccc21 [Example 1-167] | ≥ 1.5 | – |
| Cn1c(=O)cc(Nc2ccc(O)cc2)c2c(=O)n(C3CC3)c(=O)n(-c3ccccc3)c21 [Example 1-172] | ≥ 1.5 | – |
| Cn1c(=O)cc(Nc2ccccc2F)c2c(=O)n(C3CC3)c(=O)n(-c3ccccc3)c21 [Example 1-173] | ≥ 1.5 | – |
| Cc1c(=O)n(C)c(Nc2ccc(I)cc2F)c2c(=O)n(CCCO)c(=O)n(-c3ccccc3)c12 [Example 4-147] | – | 100 to 1000 nM |
| Cc1c(=O)n(C)c(Nc2ccc(I)cc2F)c2c(=O)n(CCCO)c(=O)n(-c3cccc(NC(=O)CO)c3)c12 [Example 4-148] | – | 100 to 1000 nM |
